According to patent publication US9662404B2, “Compositions and methods for the delivery of molecules into live cells” (The Texas A&M University System, priority 2013, dated 2017):
Ends that are not written are not given here.

What was measured:
[1] = tested on: HeLa, NIH 3T3, COLO 316 and HaCaT; conditions: 5 μM
Experimental: (§1) The TAT, dTAT and acTAT peptides were incubated for 1 h with several cell lines and internalization was assessed by fluorescence microscopy. […] See also FIG. 5. […] The cell lines HeLa, NIH 3T3, COLO 316 and HaCaT were incubated with 5 μM dTAT for 1 h, washed and imaged. […] After imaging, cells were incubated at 37° C. in a humidified atmosphere containing 5% CO2 for 24 h, washed and imaged again. […] Cell viability was assessed by exclusion of the cell-impermeable nuclear stain SYTOX® Blue at both 1 h and 24 h time point. […] Inverted monochrome (black=fluorescence signal, white-no signal) fluorescence images were made of HeLa cells incubated with 10 or 20 μM of TAT for 1 h.
Live cells from different lines (HeLa, HaCat, NIH 3T3) were grown in Dulbecco's […] (DMEM) (Fisher) supplemented with 10% fetal bovine serum (FBS) (Fisher) and kept at 37° C. in a humidified atmosphere containing 5% CO2. […] Images were acquired using bright field imaging and three standard fluorescence filter sets: CFP (Ex=436±10 nm/Em=480±20 nm), RFP (Ex=560±20 nm/Em=630±35 nm), and FITC (Ex=488±10 nm/Em=520±20 nm). The fluorescence intensities of different cells were measured with the SlideBook 4.2 software (Olympus, Center Valley, Pa.) and the average fluorescence intensity was determined for each condition. […]

[2] = tested on: HeLa, Neuro-2a and HDF cells; experiment: Cell proliferation, MTT assay in several cell types; format: cell-based; conditions: 5 μM, 1 h; up to 36 h after incubation
Experimental: FIG. 12 illustrates that cells treated with dTAT proliferate at a rate identical to untreated cells. HeLa, Neuro-2a and HDF cells were incubated with 5 μM dTAT for 1 h or left untreated. Proliferation was assessed using a MTT assay for up to 36 h after incubation (150,000 cells/experiment, experiments in triplicates, average and standard deviations represented).
In order to determine cells that had compromised plasma membranes, cells were treated with SYTOX® Green (SYTOX® Blue in some cases) and Hoechst (Invitrogen, Carlsbad, Calif.). SYTOX® dyes are cell-impermeable and stain the DNA of cells with compromised plasma membranes. The Hoechst dye is cell permeable and stains the DNA of all cells. Images were acquired using the green and blue filter. The green and blue images were used to count cells with a blue or green stained nucleus. Image J was used to count the dead (green) and total cells (blue). Cytotoxicity was determined from the ratio of SYTOX® Green positive cells/total number of cells. […] After the incubation each sample was mixed and the absorbance at 600 nm was measured. […] A second control consisted of cells treated with the delivery peptide but to which no MTT was added to subtract the contribution of TMR from the measured absorbance. The absorbance of the negative control was subtracted from all samples.

HeLa cells [3] = experiment: Cell proliferation, MTT assay; format: cell-based; conditions: 5 μM, 1 h; up to 36 h after incubation
Experimental: (§2) In order to determine cells that had compromised plasma membranes, cells were treated with SYTOX® Green (SYTOX® Blue in some cases) and Hoechst (Invitrogen, Carlsbad, Calif.). SYTOX® dyes are cell-impermeable and stain the DNA of cells with compromised plasma membranes. The Hoechst dye is cell permeable and stains the DNA of all cells. Images were acquired using the green and blue filter. The green and blue images were used to count cells with a blue or green stained nucleus. Image J was used to count the dead (green) and total cells (blue). Cytotoxicity was determined from the ratio of SYTOX® Green positive cells/total number of cells. An MTT-assay was performed to determine the effect of the peptide on cell proliferation. Cells were seeded in a 6-well dish, grown and washed as described above. One well from the dish was incubated with 5 μM dTAT at 37° C. for 1 h. A second well was left untreated and served as control. […] Cells were trypsinized and seeded into 96-well dishes containing 200 μL of DMEM. The cells were then allowed to attach to the bottom of the dish for 12 h. […] After the incubation each sample was mixed and the absorbance at 600 nm was measured. […] A second control consisted of cells treated with the delivery peptide but to which no MTT was added to subtract the contribution of TMR from the measured absorbance. The absorbance of the negative control was subtracted from all samples.

HeLa cells [4] = experiment: Delivery of peptides inside live cells, internalization assessed by fluorescence microscopy; format: cell-based; conditions: for cellular localization of peptide fluorescence: 1 h incubation
Experimental: as §1
Live cells from different lines (HeLa, HaCat, NIH 3T3) were grown in Dulbecco's […] (DMEM) (Fisher) supplemented with 10% fetal bovine serum (FBS) (Fisher) and kept at 37° C. in a humidified atmosphere containing 5% CO2. Cells were then seeded in 8-well dishes so that the cells were 80%-90% confluent after 48 h. […] The media (nrL-15) used for incubation lacks cysteine to avoid reduction of the disulfide bond of dTAT. Cells were then incubated with different concentrations of the acTAT, TAT, or dTAT at 37° C. for 1 h. […] Images were collected using a Rolera-MGI Plus back-illuminated EMCCD camera (Qimaging, Surrey, BC, Canada). Images were acquired using bright field imaging and three standard fluorescence filter sets: CFP (Ex=436±10 nm/Em=480±20 nm), RFP (Ex=560±20 nm/Em=630±35 nm), and FITC (Ex=488±10 nm/Em=520±20 nm). The fluorescence intensities of different cells were measured with the SlideBook 4.2 software (Olympus, Center Valley, Pa.) and the average fluorescence intensity was determined for each condition. It has been previously reported that CPPs labeled with fluorophores such as TMR can photosensitize membranes and cause endosomal leakage upon light irradiation. See, Srinivasan, D. et al., “Conjugation to the cell-penetrating peptide TAT potentiates the photodynamic effect of carboxytetramethylrhodamine,” PloS one 6:e17732 (2011) and Muthukrishnan, N., et al., “Synergy Between Cell-Penetrating Peptides and Singlet Oxygen Generators Leads to Efficient Photolysis of Membranes,” Photochemistry and Photobiology 89:625-630 (2012), each incorporated herein by reference in its entirety. […] First, all delivery experiments were performed under conditions of minimal light irradiation (dark room with dim red light). When fluorescence imaging is required, probes (e.g., SNAP surface 488, EGFP) are imaged before dTAT is, thereby minimizing the possible effect of light on endosomal release. For experiments performed with Cre and Hoxb4, cells are not imaged and not exposed to light (not at all for Hoxb4, 12 h after incubation for Cre).

HeLa cells [5] = experiment: Cell viability, SYTOX exclusion assay; format: cell-based
Experimental: as §2

Substance: (CK(TMR)TAT)2 (CK(TMR)RKKRRQRRRG; also: dimer) [dTAT, dimer of two CK(TMR)-TAT monomers linked via a disulfide bond between the N-terminal cysteine residues]
- cellular localization of fluorescence signal ([1]; 1 h): in the cytosol and nucleus of cells
- plasma membrane integrity, SYTOX Blue staining ([1]; 1 h incubation, 1 h and 24 h time points): not stained with SYTOX® Blue
- proliferation of treated versus untreated cells [2]: nearly identical proliferation patterns
- cell growth versus untreated cells (HeLa cells [3]): grow at the same rate as untreated cells
- cells in which cytosolic delivery is observed (HeLa cells [4]; 5 μM): more than 95%
- concentration range with dramatic increase in cytosolic delivery of the peptide (HeLa cells [4]; HeLa cells, dTAT 1-5 μM): 2 to 5 µM
- cellular localization of peptide fluorescence (HeLa cells [4]; above 5 μM): distributed in the cytosol and nucleus
- cellular localization of peptide fluorescence (HeLa cells [4]; below 2 μM): punctate
- effect on cell viability (HeLa cells [5]; 5 μM): does not affect cell viability
- fraction of dead cells (HeLa cells [5]; 5 μM dTAT, 1 h incubation, 1, 24 and 48 h after incubation): below 5%
